Data reported in patent publication US9681664B2, “Macrocyclic picolinamides as fungicides” (Dow Agrosciences LLC, priority 2012, dated 2017).
Where two headings read alike, the source gives them in different places.

What was measured:
[1] = test system: Puccinia triticina; Synonym: Puccinia recondite f. sp. tritici; test: Wheat brown rust (PUCCRT) disease control on wheat seedlings; format: in vivo; details: Puccinia triticina, High volume application, 100 ppm
How it was run: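 Yuma wheat grown to first fully emerged leaf was inoculated with Puccinia triticina spore suspension either before or after fungicide treatment, held overnight at 22° C. and 100% RH in darkness, then kept at 24° C. Fungicide applied by booth sprayer to run-off (acetone/water, 110 ppm Triton X-100) or as EC by track spray.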

[2] = test system: Glomerella lagenarium; Anamorph: Colletotrichum lagenarium; test: Cucumber anthracnose (COLLLA) disease control; format: in vivo; details: Colletotrichum orbiculare, 24 h, 1 Day Protectant, high volume, read-out: Disease Control COLLLA 1 DP
Procedure: Technical grades of materials were dissolved in acetone, which were then mixed with nine volumes of water containing 110 ppm Triton X-100. The fungicide solutions were applied onto wheat seedlings using an automated booth sprayer to run-off. All sprayed plants were allowed to air dry prior to further handling. All fungicides were evaluated using the aforementioned method for their activity vs. all target diseases. Wheat leaf blotch and brown rust activity were also evaluated using track spray applications, in which case the fungicides were formulated as EC formulations, containing 0.1% Trycol 5941 in the spray solutions. Cucumber seedlings (variety Bush Pickle) were propagated in soil-less Metro mix, with each pot having one plant, and used in the test when 12 to 14 days old. Test plants were inoculated with an aqueous spore suspension of Colletotrichum lagenarium 24 hr after fungicide treatments. After inoculation the plants were kept in a dew room at 22° C. with 100% relative humidity for 48 hr to permit spores to germinate and infect the leaf. The plants were then transferred to a growth room set at 22° C. for disease to develop. Fungicide formulation, application and disease assessment on the sprayed leaves followed the procedures as described in the Example A.

[3] = test system: Phakopsora pachyrhizi; test: Asian soybean rust (PHAKPA) disease control; format: in vivo; details: topical, high volume
Procedure: Technical grades of materials were dissolved in acetone, which were then mixed with nine volumes of water containing 0.011% Tween 20. The fungicide solutions were applied onto soybean seedlings using an automated booth sprayer to run-off. All sprayed plants were allowed to air dry prior to further handling.
Soybean plants (variety Williams 82) were grown in soil-less Metro mix, with one plant per pot. Two weeks old seedlings were used for testing. Plants were inoculated either 3 days prior to or 1 day after fungicide treatments. Plants were incubated for 24 h in a dark dew room at 22° C. and 100% RH then transferred to a growth room at 23° C. for disease to develop. Disease severity was assessed on the sprayed leaves.

[4] = test system: Mycosphaerella graminicola; Anamorph: Septoria tritici; test: Leaf blotch of wheat (SEPTTR) disease control on wheat seedlings; format: in vivo; details: Zymoseptoria tritici, High volume application, 100 ppm
How it was run: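 Protective or curative format: Septoria tritici inoculation either preceded or followed fungicide application to first-leaf Yuma wheat. Severity scored 0–100%; control expressed versus untreated.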

[5] = 24 h, 1 Day Protectant, read-out: PUCCRT 1DP disease control
[6] = 72 h, 3 Day Curative, read-out: PUCCRT 3DC disease control
[7] = 24 h, 1 Day Protectant, read-out: Disease Control PHAKPA 1DP
[8] = 24 h, 1 Day Protectant, read-out: SEPTTR 1DP disease control
[9] = 72 h, 3 Day Curative, read-out: SEPTTR 3DC disease control
[10] = 72 h, 3 Day Curative, read-out: Disease Control PHAKPA 3DC

Structure (SMILES)	pest or weed control at 100 ppm [1, 5] [%]	pest or weed control at 100 ppm [1, 6] [%]	pest or weed control at 100 ppm [2] [%]	pest or weed control at 25 ppm [3, 7] [%]	pest or weed control at 100 ppm [4, 8] [%]	pest or weed control at 100 ppm [4, 9] [%]	melting point [°C]	pest or weed control at 25 ppm [3, 10] [%]
COc1ccnc(C(=O)N[C@H]2CCC[C@H](OC3CCCC3)[C@@H](OC3CCCC3)[C@H](C)OC2=O)c1OCOC(C)=O [F217]	80 to 100	80 to 100	80 to 100	80 to 100	80 to 100	80 to 100		
CCCO[C@H]1[C@H](C)OC(=O)[C@@H](NC(=O)c2nccc(OC)c2O)CCC[C@@H]1OCC(C)C [F212]	80 to 100	80 to 100			0 to 80	0 to 80	109 to 111	
COc1ccnc(C(=O)N[C@H]2CCC[C@H](Oc3ccc(F)cc3)[C@@H](Oc3ccc(F)cc3)[C@H](C)OC2=O)c1O [F50]	80 to 100	80 to 100			80 to 100	0 to 80	89 to 91	
COc1ccnc(C(=O)N[C@H]2CCC[C@H](OC3CCCC3)[C@@H](Oc3ccccc3)[C@H](C)OC2=O)c1OCOC(C)=O [F78]	80 to 100	80 to 100	80 to 100	80 to 100	80 to 100	80 to 100		80 to 100
CCCO[C@H]1[C@H](C)OC(=O)[C@@H](N)CCC[C@@H]1OCC(C)C.Cl							226 to 229	
COc1ccnc(C(=O)N[C@H]2CCC[C@H](OCC(C)C)[C@@H](OCCCC(F)(F)F)[C@H](C)OC2=O)c1OCOC(C)=O [F44]	80 to 100	80 to 100		80 to 100	80 to 100	80 to 100		
COc1ccnc(C(=O)N[C@H]2CCC[C@H](OC3CCCC3)[C@@H](OCC(C)C)[C@H](C)OC2=O)c1O [F119]	80 to 100	80 to 100			80 to 100	80 to 100	99 to 100	
COc1ccnc(C(=O)N[C@H]2CCC[C@H](OCC(C)C)[C@@H](OC(=O)C3CC3)[C@H](C)OC2=O)c1OCOC(C)=O [F46]	80 to 100	80 to 100		80 to 100	80 to 100	80 to 100		
C[C@@H]1OC(=O)[C@@H](N)CCC[C@H](OC2CCCC2)[C@H]1OC1CCCC1.Cl							246 to 248	
COc1ccnc(C(=O)N[C@H]2CCC[C@H](OC3CCCC3)[C@@H](OC3CCCC3)[C@H](C)OC2=O)c1O [F73]	80 to 100	80 to 100			0 to 80	80 to 100	61 to 63	
COc1ccnc(C(=O)N[C@H]2CCC[C@H](OCC(C)C)[C@@H](Oc3ccc(F)cc3)[C@H](C)OC2=O)c1O [F55]	80 to 100	80 to 100			80 to 100	80 to 100	65 to 67	
COc1ccnc(C(=O)N[C@H]2CCC[C@H](OCC(C)C)[C@@H](OCCCC(F)(F)F)[C@H](C)OC2=O)c1O [F41]	80 to 100	80 to 100			0 to 80	80 to 100	108 to 114	
COc1ccnc(C(=O)N[C@H]2CCC[C@H](OC3CCCC3)[C@@H](OCCCC(F)(F)F)[C@H](C)OC2=O)c1O [F120]	80 to 100	80 to 100			80 to 100	80 to 100	43 to 48	
CC(C)CO[C@H]1[C@H](C)OC(=O)[C@@H](N)CCC[C@@H]1OCC(C)C.Cl							188 to 230	
COc1ccnc(C(=O)N[C@H]2CCC[C@H](OCC(C)C)[C@@H](OC(=O)C3CC3)[C@H](C)OC2=O)c1O [F213]	80 to 100	80 to 100			0 to 80	0 to 80	63 to 66	
COc1ccnc(C(=O)N[C@H]2CCC[C@H](Oc3ccc(F)cc3)[C@@H](OCC(C)C)[C@H](C)OC2=O)c1OCOC(C)=O [F63]	80 to 100	80 to 100			80 to 100	80 to 100	139 to 141	
CCCO[C@H]1[C@H](C)OC(=O)[C@@H](NC(=O)c2nccc(OC)c2OCOC(C)=O)CCC[C@@H]1OCC(C)C [F45]	80 to 100	80 to 100		80 to 100	80 to 100	80 to 100		80 to 100
COc1ccc(O[C@H]2CCC[C@H](N)C(=O)O[C@@H](C)[C@@H]2OCC(C)C)cc1.Cl							198 to 200	
COc1ccnc(C(=O)N[C@H]2CCC[C@H](OC3CCCC3)[C@@H](Oc3ccccc3)[C@H](C)OC2=O)c1OC(C)=O [F81]	80 to 100	80 to 100		80 to 100	80 to 100	80 to 100		
CC(C)CO[C@H]1CCC[C@H](N)C(=O)O[C@@H](C)[C@@H]1OC(=O)C1CC1.Cl							231 to 235	
CCCO[C@H]1[C@H](C)OC(=O)[C@@H](NC(=O)c2nccc(OC)c2OCOC(C)=O)CCC[C@@H]1Oc1ccccc1 [F95]	80 to 100	80 to 100		80 to 100	80 to 100	80 to 100		80 to 100
COc1ccnc(C(=O)N[C@H]2CCC[C@H](OCCCc3ccccc3)[C@@H](Oc3ccccc3)[C@H](C)OC2=O)c1OCOC(C)=O [F133]	80 to 100	80 to 100		80 to 100	80 to 100	80 to 100		0 to 80
CC(C)CO[C@H]1CCC[C@H](N)C(=O)O[C@@H](C)[C@@H]1OC/C=C/C(F)(F)F.Cl							236 to 240	
COc1ccnc(C(=O)N[C@H]2CCC[C@H](OCC(C)C)[C@@H](OCC(C)C)[C@H](C)OC2=O)c1O [F21]	80 to 100	80 to 100			0 to 80	0 to 80	94 to 95	
